These results are taken from patent US10875898B2, “Bioactive protein, use thereof and method for its production” (Koppert B.V., priority 2014, dated 2020).

The subject of one assay is Arabidopsis thaliana. As to the kind of experiment: growth of Arabidopsis. Type of assay: in vivo. The note with it: 0.01 μM drench every two days for one month. The procedure:
FIG. 12: Effect of purified HYTLO1 on the growth of Arabidopsis (A), percentage seed germination of cucumber (B) and plantlet development of Lotus japonicus (C). A: Arabidopsis thaliana (Columbia-0: Col-0) seeds were sown in Levington's F2 compost plus sand (JFC Munro, Devon; http://www.jfcmonro.com) and chilled for 2 days at 4° C. Plants were grown under short-day conditions (10 h light) in a controlled environment chamber, at 22° C. during the day and 18° C. at night with 60% relative humidity for 5-6 weeks before transplanting. Ten ml of sterile solutions of HYTLO1 were drenched every two days at concentrations 0.072 μg/ml (0.01 μM) for one month in each pot containing 100 ml of soil and 1 Arabidopsis plant. Untreated plants were used as controls. B: Sterile cucumber seeds were placed on magenta box containing half-strength Murashige and Skoog salt (MS) medium (ICN Biomedicals) containing 1% agar and 1.5% sucrose, adjusted to pH 5.7, and vernalized for 2 days at 4° C. in the absence of light. A sterile solutions of HYTLO1 was added to the substrate at final concentration of 10^−8 M before the solidification of agar. C: The same concentration of HYTLO1 was used in the agarized medium used for the L. japonicus test. […]

A further assay concerns B. cinerea. Nature of the assay: ELISA-based inhibition assay of B. cinerea growth. Particulars: compared to hydrophobins from T. harzianum strains T22 and M10. The format is cell-based, Botrytis cinerea. An excerpt:
FIG. 4. Antifungal effect of HYTLO1 on B. cinerea growth compared to similar hydrophobins purified from T. harzianum strain T22 and T. harzianum strain M10. Assay protocol is described in Lorito M. et al. 1994. Microbiology UK, 140:623-629. Numbers on the left side indicate micro molar concentration of HYTLO1 used. T22 and M10=hydrophobin from strain T22 and M10, respectively. The inhibition of the pathogen colony is indicated by the reduced intensity of the dark color in the wells compared to control (C).
In general terms: An ELISA detects its analyte on a solid surface through an enzyme-linked reagent.

For a further assay, the system named is Botrytis cinerea. As to the kind of experiment: spore germination in Potato Dextrose Broth. Type of assay: cell-based. The note with it: 5 μM HYTLO1, 25° C., 24 hours, PDB. How it is done:
(§1) FIG. 3: HYTLO1 antifungal activity. Spore of the pathogens Botrytis cinerea and Alternaria spp. and of the biocontrol agent Trichoderma harzianum strain MK1-KV966 were germinated at 25° C. for 24 hours in Potato Dextrose Broth (PDB) containing 5 μM of HYTLO1 and compared with those germinated in PDB plus the same solvent as the control.

The test system of a further assay is Alternaria spp. As to the kind of experiment: spore germination in Potato Dextrose Broth. Type of assay: cell-based. The note with it: 5 μM HYTLO1, 25° C., 24 hours, PDB. How it is done:
as §1

Another assay relates to Lotus japonicus. As to the kind of experiment: Rhizobium lotii on Lotus japonicus in vitro system, plant growth and nodule density. Type of assay: in vivo. Particulars: HYTLO1 0.07 μM, 6PP 0.002 μM, 4 weeks after seeding. The procedure: Wt+Rhz=treatment with R. loti, Wt-Rhz without R. loti. (D) Growth measured after 4 weeks, in the absence (cont) or presence of Rhizoba R. loti ((+) Rhiz). The purified molecules were added to the sterile MS media and poured into Petri dishes. Data were recorded 4 weeks after seeding of L. japonicus.
FIG. 18. […] (HYT=HYTLO1 at 0.07 μM, 6PP at 0.002 μM, HA=Harzianic Acid at 0.001 μM). Wt=control with R. loti without metabolites. The purified molecules were added to the sterile MS media and poured into Petri dishes. Average number of nodules per cm of root are indicated. Data were recorded 4 weeks after seeding of L. japonicus.
In order to test the effect of HYTLO1, as well as of the secondary metabolites HA and 6PP on the growth promotion activity of Rhizobia, such as Rhizobium sp., on legumimosae plants, we used a standard Rhizobium lotii on Lotus japonicus in vitro system (Barbulova et al., 2005, Functional Plant Biology, 32:529-536). Plant growth and nodule density on the roots were scored four weeks after seeding by comparing untreated controls and the various treatments.

The test system of another assay is cucumber. Nature of the assay: combined application of HYTLO1, HA and 6PP on cucumber seed germination and growth promotion. The format is in vivo. Also on record: Root length, increase % vs. Control / Plant fresh weight, increase % vs. Control / Plant dry weight, increase % vs. Control / plant height, increase % vs. Control: concentration or dose not given beside the values. How it is done: Tested metabolites include 6PP and Harzianic Acid, and experiments were performed on seed germination, stem or root elongation as well fresh/dry weight. The results shown in Table 1 were obtained by using cucumber seeds coated with the solutions of the tested compounds, that were then transferred in Petri dishes and left to germinate on filter humid paper. First seed germination was evaluated, then the germinated seedlings were transplanted into pots containing sterilised soil. Other two treatments with the purified molecules were performed at 10 days interval, by drenching the soil with the solutions at the final concentrations of 10^−7M for 6PP and HA, and 10^−8M for HYTLO1. In two-compounds application, half dose of each molecule was used. In three-compound applications, one third of the dose of each molecules was used. Each treatments consisted of 8 plants. Results were collected 30 days after seed coating. Control was produced by adding water instead of the molecule solutions. The effect of the minimal amounts of solvents eventually contained in HA and 6PP solution was preliminary tested, with no differences observed in comparison to water control. The results shown in Table 1 that all of the three tested molecules have a significant beneficial effect on seed germination and plant growth, and that they can be synergistically combined for enhanced effectiveness.

Regarding “HYTLO1: about 7 KDa Type II hydrophobin protein from Trichoderma longibrachiatum strain MK1, 71 aa, SEQ ID NO: 1”, in the assay with Arabidopsis thaliana, the growth promotion effect entry is listed as “confirmed”. The “antifungal effect on B. cinerea growth” value in the assay on B. cinerea is “strong antifungal effect”. For the same substance, the “effect on germination of spores” value in the assay with Botrytis cinerea is “direct inhibitory effect”. In the assay on Alternaria spp., the “effect on germination of spores” value is “direct inhibitory effect”. In the assay with Lotus japonicus (HA 0.001 μM in MS media), the “plant growth promotion effect of Rhizobia on Lotus japonicus” value is reported as “enhances the plant growth promotion effect of Rhizobia”. Further, the “nodule formation (number of nodules per cm of root)” value in the assay with Lotus japonicus (HA 0.001 μM, with R. loti) is “Enhancement of nodule formation”. Moreover, in the assay on cucumber (30 days after seed coating, SD +− 1.3 g), the “Plant dry weight” value amounted to 8.4 g. Also, the “Root length (cm)” value in the assay on cucumber (30 days after seed coating, SD +− 2.1 cm) is listed as 14.6 cm. Further, the “Plant fresh weight” value in the assay on cucumber (30 days after seed coating, SD +− 2.5 g) is 24.76 g. In addition, the “plant height (cm)” value in the assay on cucumber (30 days after seed coating, drench 10^−7M 6PP and HA, 10^−8M HYTLO1, half or one third dose in combinations, SD +− 2.5 cm) was 24.9 cm. Also, the “Seed germination (24 h)” value with cucumber (coated cucumber seeds on humid filter paper, SD +− 9%) is reported as 78%. The “Seed germination (24 h), increase % vs. Control” value with cucumber (vs water control) is “+30%”. Besides, in the assay on cucumber (vs water control, 30 days), the “Plant dry weight, increase % vs. Control” value is reported as 51.2%; the “Plant fresh weight, increase % vs. Control” value came to 34.1%; the “Root length, increase % vs. Control” value was 17.1%.
